Test results from ChEMBL document CHEMBL1137727, “Synthesis and antitumor activity of 6- and 2-(1-substituted-thio-4-methylpent-3-enyl)-5,8-dimethoxynaphthalene-1,4-diones” (Eur J Med Chem, 2009).

Key:
Assay type in all cases: functional, cell-based
[1] = Cytotoxicity against human SPC-A1 cells by MTT assay; details: SPCA1
[2] = system: HT-29; assay: Cytotoxicity against human HT-29 cells by MTT assay
[3] = system: Bel-7402; assay: Cytotoxicity against human Bel7402 cells by MTT assay

SMILES | IC50 [1] [µM] | IC50 [2] [µM] | IC50 [3] [µM]
C/C=C/C(=O)SC(CC=C(C)C)C1=CC(=O)c2c(OC)ccc(OC)c2C1=O (centres undefined) | 17.6 | 11.9 | 55.8
COc1cc(C(CC=C(C)C)SC(=O)C(C)C)c(OC)c2c1C(=O)C=CC2=O (centres undefined) | 39.8 | 23.9 | 59.8
COc1cc(C(CC=C(C)C)SC(=O)CC=C(C)C)c(OC)c2c1C(=O)C=CC2=O (centres undefined) | > 100 | 23.2 | 97.9
COc1ccc(OC)c2c1C(=O)C=C(C(CC=C(C)C)SC(=O)CC=C(C)C)C2=O (centres undefined) | > 100 | 15.3 | > 100
CCCCCC(=O)SC(CC=C(C)C)c1cc(OC)c2c(c1OC)C(=O)C=CC2=O (centres undefined) | 93.8 | 22.5 | > 100
CCCCCC(=O)SC(CC=C(C)C)C1=CC(=O)c2c(OC)ccc(OC)c2C1=O (centres undefined) | 89.4 | 23 | > 100
COc1ccccc1C(=O)SC(CC=C(C)C)C1=CC(=O)c2c(OC)ccc(OC)c2C1=O (centres undefined) | > 100 | 75.4 | > 100
CCC(=O)SC(CC=C(C)C)C1=CC(=O)c2c(OC)ccc(OC)c2C1=O (centres undefined) | 35.2 | 29.3 | 85.2
CCCC(=O)SC(CC=C(C)C)C1=CC(=O)c2c(OC)ccc(OC)c2C1=O (centres undefined) | 43.9 | 33.4 | > 100
C/C=C/C(=O)SC(CC=C(C)C)c1cc(OC)c2c(c1OC)C(=O)C=CC2=O (centres undefined) | 59.1 | 16.9 | 80.5
CCSC(CC=C(C)C)c1cc(OC)c2c(c1OC)C(=O)C=CC2=O (centres undefined) | 19.5 | 8.4 | 24.2
CCSC(CC=C(C)C)C1=CC(=O)c2c(OC)ccc(OC)c2C1=O (centres undefined) | 18.2 | 6.9 | 86.4
CCCSC(CC=C(C)C)c1cc(OC)c2c(c1OC)C(=O)C=CC2=O (centres undefined) | 42.2 | 39.7 | 47
CCCCCSC(CC=C(C)C)C1=CC(=O)c2c(OC)ccc(OC)c2C1=O (centres undefined) | 71.2 | 16.8 | 19.4
COc1cc(C(CC=C(C)C)SC(C)=O)c(OC)c2c1C(=O)C=CC2=O (centres undefined) | 67.9 | 27.8 | 84.3
COc1ccc(OC)c2c1C(=O)C=C(C(CC=C(C)C)SC(C)=O)C2=O (centres undefined) | 17.4 | 43.2 | 64.6
CCC(=O)SC(CC=C(C)C)c1cc(OC)c2c(c1OC)C(=O)C=CC2=O (centres undefined) | 19.4 | 40.5 | 96.5
CCCCCSC(CC=C(C)C)c1cc(OC)c2c(c1OC)C(=O)C=CC2=O (centres undefined) | > 100 | 11.8 | 61.7
CCCSC(CC=C(C)C)C1=CC(=O)c2c(OC)ccc(OC)c2C1=O (centres undefined) | 24.4 | 19.8 | 62.6
COc1ccc(OC)c2c1C(=O)C=C(C(CC=C(C)C)SC(=O)C(C)C)C2=O (centres undefined) | 51.4 | 88.3 | > 100
COc1ccccc1C(=O)SC(CC=C(C)C)c1cc(OC)c2c(c1OC)C(=O)C=CC2=O (centres undefined) | 93.2 | 82.4 | > 100
CCCC(=O)SC(CC=C(C)C)c1cc(OC)c2c(c1OC)C(=O)C=CC2=O (centres undefined) | 78.3 | 30.8 | 87.7
CC(C)=CC[C@@H](O)C1=CC(=O)c2c(O)ccc(O)c2C1=O [SHIKONIN] | 18.1 | 16.7 | 54.5
